Experimental data published in patent US20240408099A1, “COMBINATION […] OF KRAS G12D INHIBITORS WITH Pan ErbB FAMILY INHIBITORS” (MIRATI THERAPEUTICS, INC., priority 2021, published 2024).

Experiments:
AGS = test: Composite Synergy Score, Cell-Titer Glo 72 hours, dose matrix with MRTX1133; type: cell-based; conditions: combined with MRTX1133
Description: (§1) Assays for determining the synergy score for the pairwise combinations for each cell line were performed in triplicate. Three 96-well plates plus an additional 4 wells of a separate 96-well control plate for determining baseline luminescence were seeded with 2000 cells/well of a particular cell line in a total volume of 90 μl of a suitable growth medium for that cell line, e.g., RPMI 1640 medium supplemented with 10% FBS and any cell line specific reagents need for growth. The plates were incubated overnight at 37° C. in a 5% CO2 atmosphere.
(§2) To each of the designated baseline wells, 30 μl of Cell-Titer Glo reagent (CTG; Promega Corporation) was added to each well and the plates were incubated for 20 min with shaking at room temperature. Baseline luminescence was quantitated using a BMG ClarioStar multimode plate reader according to the manufacturer's instructions.
(§3) A series of working stock 1000× drug dilutions in 100% DMSO was prepared that includes an 8 point single agent dilution of MRTX 1133 and a 5-point single agent dilution of the pan ErbB family inhibitor. The dilutions used for MRTX1133 and the pan ErbB family inhibitor varied for each individual compound but were in the range of 3- to 6-fold/serial dilution.
(§4) A 10× intermediate dosing plate was prepared in serum free RPMI medium that contains arrayed single agent dilutions MRTX1133 or the pan ErbB family inhibitor. In addition, a matrix of 40 dilution combinations of MRTX1133 and the pan ErbB family inhibitor was prepared as test samples.
(§5) To each corresponding well of the three 96-well plates seeded with the appropriate cell line above, 10 μl of each 10× single agent and the 40 combinations of the dose matrix was added and the plates were incubated for 72 hours at 37 C in 5% CO2 atmosphere. A 30 μl aliquot of Cell-Titer Glo reagent (CTG) was added to each test well, the plates were incubated for 20 min with shaking at room temperature, and luminescence was quantitated using a BMG ClarioStar multimode plate reader according to the manufacturer's instructions.
(§6) The output of the data from each mathematical model is the assignment of a relative synergy score. The data reported in Table 1 are the aggregate sum of the Loewe additivity, Bliss independence, Highest Single Agent and ZIP scores (“Composite Synergy Score”).
(§7) The output of the data from each mathematical model is the assignment of a relative synergy score.

ASPC1 = test: as above; type: cell-based; conditions: combined with MRTX1133
Description: as §1, §2, §3, §4, §5, §6, §7

GP2D = test: as above; type: cell-based; conditions: combined with MRTX1133
Description: as §1, §2, §3, §4, §5, §6, §7

HCC1588 = test: as above; type: cell-based; conditions: combined with MRTX1133
Description: as §1, §2, §3, §4, §5, §6, §7

HPAC = test: as above; type: cell-based; conditions: combined with MRTX1133
Description: as §1, §2, §3, §4, §5, §6, §7

HPAFII = test: as above; type: cell-based; conditions: combined with MRTX1133
Description: as §1, §2, §3, §4, §5, §6, §7

Hec1B = test: as above; type: cell-based; conditions: combined with MRTX1133
Description: as §1, §2, §3, §4, §5, §6, §7

LS180 = test: as above; type: cell-based; conditions: combined with MRTX1133
Description: as §1, §2, §3, §4, §5, §6, §7

Panc0403 = test: as above; type: cell-based; conditions: combined with MRTX1133
Description: as §1, §2, §3, §4, §5, §6, §7

Panc0504 = test: as above; type: cell-based; conditions: combined with MRTX1133
Description: as §1, §2, §3, §4, §5, §6, §7

Panc1005 = test: as above; type: cell-based; conditions: combined with MRTX1133
Description: as §1, §2, §3, §4, §5, §6, §7

Panc1 = test: as above; type: cell-based; conditions: combined with MRTX1133
Description: as §1, §2, §3, §4, §5, §6, §7

SNU1197 = test: as above; type: cell-based; conditions: combined with MRTX1133
Description: as §1, §2, §3, §4, §5, §6, §7

SNU407 = test: as above; type: cell-based; conditions: combined with MRTX1133
Description: as §1, §2, §3, §4, §5, §6, §7

SNU410 = test: as above; type: cell-based; conditions: combined with MRTX1133
Description: as §1, §2, §3, §4, §5, §6, §7

SNU61 = test: as above; type: cell-based; conditions: combined with MRTX1133
Description: as §1, §2, §3, §4, §5, §6, §7

SUIT2 = test: as above; type: cell-based; conditions: combined with MRTX1133
Description: as §1, §2, §3, §4, §5, §6, §7

SW1990 = test: as above; type: cell-based; conditions: combined with MRTX1133
Description: as §1, §2, §3, §4, §5, §6, §7

LS180 cells = test: LS180 colon cancer xenograft, tumor volumes; type: in vivo, nude/nude mice; conditions: for tumor growth inhibition: 30 mg/kg BID, single agent, Day 15
Description: (§8) Immunocompromised nude/nude mice are inoculated in the right hind flank with cells harboring a KRas G12D mutation. When tumor volumes reach between 200-400 mm^3 in size, the mice are divided into four to five groups of 5 mice each. The first group is administered vehicle only. […] The fourth or last groups are administered the single agent dose of the KRas G12D inhibitor using the twice daily schedule and/or the 2 sequential days followed by 5 days off schedule in combination with the single agent dose of one of the EGFR inhibitors. […] Tumor volumes are measured using a caliper every two-three days and tumor volumes are calculated by the formula: […].
(§9) 20 to 30 nude/nude mice per study were inoculated in the right hind limb with 5×10^6 LS180 cells, AsPC-1 cells, GP2D cells, Panc 02.03 cells, SW1990 cells, or SNU-1033 cells.
Experimental Procedures. 25 nude/nude mice were inoculated with LS180 cells in the right hind flank. When the tumors reached ˜250 mm^3 five treatment groups were established with five mice per group.

GP2D cells = test: GP2D TGI MDS 200108-807 colorectal cancer xenograft, tumor volumes; type: in vivo, nude/nude mice; conditions: for Average Tumor Volumes: 30 mg/kg BID Daily
Description: as §8, §9
Experimental Procedures. 20 nude/nude mice were inoculated with GP2D cells in the right hind flank. When the tumors reached ˜300 mm^3 four treatment groups were established with five mice per group.

CN(C)C/C=C/C(=O)Nc1cc2c(Nc3ccc(F)c(Cl)c3)ncnc2cc1OC1CCOC1 (stereo not shown) [Afatinib, (E)-N-(4-((3-chloro-4-fluorophenyl)amino)-7-((tetrahydrofuran-3-yl)oxy)quinazolin-6-yl)-4-(dimethylamino)but-2-enamide, reference compound] was tested, and the “Composite Synergy Score” value (AGS) was 36, the “Composite Synergy Score” value (ASPC1) was 28 and the “Composite Synergy Score” value (GP2D) was 26. For the same compound, the “Composite Synergy Score” value (HCC1588) was 10, the “Composite Synergy Score” value (HPAC) was 33 and the “Composite Synergy Score” value (HPAFII) was 23. For the same compound, the “Composite Synergy Score” value (Hec1B) was −5, the “Composite Synergy Score” value (LS180) was 76 and the “Composite Synergy Score” value (Panc0403) was 40. For the same compound, the “Composite Synergy Score” value (Panc0504) was 24, the “Composite Synergy Score” value (Panc1005) was 37 and the “Composite Synergy Score” value (Panc1) was −6. For the same compound, the “Composite Synergy Score” value (SNU1197) was 63, the “Composite Synergy Score” value (SNU407) was 23 and the “Composite Synergy Score” value (SNU410) was −13. For the same compound, the “Composite Synergy Score” value (SNU61) was 44, the “Composite Synergy Score” value (SUIT2) was 45 and the “Composite Synergy Score” value (SW1990) was 57.
In the case of C#Cc1c(F)ccc2cc(O)cc(-c3ncc4c(N5C[C@H]6CC[C@@H](C5)N6)nc(OC[C@@]56CCCN5C[C@H](F)C6)nc4c3F)c12 [MRTX1133, 4-(4-((1R,5S)-3,8-diazabicyclo[3.2.1]octan-3-yl)-8-fluoro-2-(((2R,7aS)-2-fluorohexahydro-1H-pyrrolizin-7a-yl)methoxy)pyrido[4,3-d]pyrimidin-7-yl)-5-ethynyl-6-fluoronaphthalen-2-ol], the “Average Tumor Volumes” value (LS180 cells; 30 mg/kg BID 2x/week, Study Day 1) is reported as 272.338 mm^3, the “Average Tumor Volumes” value (LS180 cells; 30 mg/kg BID 2x/week, Study Day 4) is reported as 570.528 mm^3 and the “Average Tumor Volumes” value (LS180 cells; 30 mg/kg BID 2x/week, Study Day 8) is reported as 1134.668 mm^3. For the same compound, the “Average Tumor Volumes” value (LS180 cells; 30 mg/kg BID 2x/week, Study Day 11) was 1439.99 mm^3, the “Average Tumor Volumes” value (LS180 cells; 30 mg/kg BID 2x/week, Study Day 15) was 1899.832 mm^3 and the “Average Tumor Volumes” value (LS180 cells; 30 mg/kg BID Daily, Study Day 1) was 268.94 mm^3. The “Average Tumor Volumes” value (LS180 cells; 30 mg/kg BID Daily, Study Day 4) was 418.808 mm^3, the “Average Tumor Volumes” value (LS180 cells; 30 mg/kg BID Daily, Study Day 8) was 593.71 mm^3 and the “Average Tumor Volumes” value (LS180 cells; 30 mg/kg BID Daily, Study Day 11) was 808.808 mm^3. For the same compound, the “Average Tumor Volumes” value (LS180 cells; 30 mg/kg BID Daily, Study Day 15) was 1197.106 mm^3, the tumor growth inhibition (LS180 cells; daily administration) was 45% and the tumor growth inhibition (LS180 cells; twice per week administration) was 4%. For the same compound, the “Average Tumor Volumes” value (GP2D cells; Study Day 2) was 341.3 mm^3, the “Average Tumor Volumes” value (GP2D cells; Study Day 6) was 282.98 mm^3 and the “Average Tumor Volumes” value (GP2D cells; Study Day 9) was 237.18 mm^3. For the same compound, the “Average Tumor Volumes” value (GP2D cells; Study Day 13) was 244.1 mm^3, the “Average Tumor Volumes” value (GP2D cells; Study Day 16) was 198.725 mm^3 and the “Average Tumor Volumes” value (GP2D cells; Study Day 20) was 288.05 mm^3. For the same compound, the “Average Tumor Volumes” value (GP2D cells; Study Day 23) was 339 mm^3, the “Average Tumor Volumes” value (GP2D cells; Study Day 27) was 385.85 mm^3 and the “Average Tumor Volumes” value (GP2D cells; Study Day 30) was 394.05 mm^3. It also gave a tumor growth inhibition (GP2D cells; 30 mg/kg BID daily, single agent, Day 30) of 96%.
